Here are results for 26 compounds from patent publication US20260374756A1, “HETEROCYCLIC COMPOUNDS AS INHIBITORS OF MONOACYLGLYCEROL LIPASE (MAGL)” (Hoffmann-La Roche Inc., priority 2022, published 2026).

What is called IC50 is the point on the concentration scale where inhibition reaches its midpoint. Lower therefore signals inhibition by little substance.

In the assay the target is T1, hMAGL (Homo sapiens, UniProt Q99685).
T1 sequence (Q99685 1-303): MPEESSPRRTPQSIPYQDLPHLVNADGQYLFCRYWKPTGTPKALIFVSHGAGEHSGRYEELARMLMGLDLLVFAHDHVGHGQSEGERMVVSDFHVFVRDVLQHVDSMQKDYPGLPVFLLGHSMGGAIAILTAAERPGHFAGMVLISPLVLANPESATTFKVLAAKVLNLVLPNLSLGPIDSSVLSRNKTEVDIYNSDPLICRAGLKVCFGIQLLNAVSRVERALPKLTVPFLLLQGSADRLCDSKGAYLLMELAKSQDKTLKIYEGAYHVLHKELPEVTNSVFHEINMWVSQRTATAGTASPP
The experiment in a line: 2-AG assay: MAGL inhibition, hydrolysis of 2-arachidonoylglycerol to arachidonic acid followed by mass spectrometry. It counts as biochemical. The protocol: Compounds of formula (I) were profiled for MAGL inhibitory activity by determining the enzymatic activity by following the hydrolysis of the natural substrate 2-arachidonoylglycerol (2-AG) resulting in arachidonic acid, which can be followed by mass spectrometry. This assay is hereinafter abbreviated “2-AG assay”. The 2-AG assay was carried out in 384 well polypropylene assay plates. […] Compound dilutions were added to MAGL protein in assay buffer (50 mM TRIS, 1 mM EDTA, 0.01% (v/v) Tween-20, 2.5% (v/v) DMSO). After shaking, the plate was incubated for 15 min at RT. To start the reaction, 2-arachidonoylglycerol in assay buffer was added. The final concentrations in the assay was […] for MAGL protein and 8 μM 2-arachidonoylglyerol. After shaking and 30 min incubation at RT, the reaction was quenched by the addition of two assay volumes of acetonitrile containing 4 μM of d8-arachidonic acid. The amount of arachidonic acid formed was traced by an online SPE system (Agilent Rapidfire) coupled to a triple quadrupole mass spectrometer. A C18 SPE cartridge (Agilent G9205A) was used in an acetonitrile/water liquid setup. […] The activity of the compounds was calculated based on the ratio of intensities [arachidonic acid/d8-arachidonic acid].
The compound `O=C(N1CC2(CC(n3cnc(C(F)(F)F)n3)C2)C1)N1CC2(CN(Cc3snnc3C3CC3)C2)C1` [Example 89, [6-[(4-cyclopropylthiadiazol-5-yl)methyl]-2,6-diazaspiro[3.3]heptan-2-yl]-[6-[3-(trifluoromethyl)-1,2,4-triazol-1-yl]-2-azaspiro[3.3]heptan-2-yl]methanone] displayed an IC50 of 312 nM.
Next, `Cn1nc(C(F)(F)F)cc1CN1CC2(C1)CN(C(=O)N1CC3(CC(n4cnc(C(F)(F)F)n4)C3)C1)C2` [Example 166]: 20.3 nM; `O=C(N1CC2(CC(n3cnc(C4CC4)n3)C2)C1)N1CC2(CN(Cc3ccnn3CC(F)F)C2)C1` [Example 261, [6-(3-cyclopropyl-1,2,4-triazol-1-yl)-2-azaspiro[3.3]heptan-2-yl]-[6-[[2-(2,2-difluoroethyl)pyrazol-3-yl]methyl]-2,6-diazaspiro[3.3]heptan-2-yl]methanone]: 95.7 nM; `O=C(N1CC2(CC(n3cnc(C4CC4)n3)C2)C1)N1CC2(CN(Cc3nnnn3CC(F)(F)F)C2)C1` [Example 198, [6-(3-cyclopropyl-1,2,4-triazol-1-yl)-2-azaspiro[3.3]heptan-2-yl]-[6-[[1-(2,2,2-trifluoroethyl)tetrazol-5-yl]methyl]-2,6-diazaspiro[3.3]heptan-2-yl]methanone]: 71.5 nM.
Take `O=C(N1CC2(CC(Cn3ccc(C(F)(F)F)n3)C2)C1)N1CC2(CC(n3cnc(C4(O)CC4)n3)C2)C1` [Example 293, [6-[3-(1-hydroxycyclopropyl)-1,2,4-triazol-1-yl]-2-azaspiro[3.3]heptan-2-yl]-[6-[[3-(trifluoromethyl)pyrazol-1-yl]methyl]-2-azaspiro[3.3]heptan-2-yl]methanone]: inhibition was half-maximal at 5.1 nM (IC50).
As for `O=C(N1CC2(CC(Cn3nccc3C(F)(F)F)C2)C1)N1CC2(CC(n3cnc(C4(O)CC4)n3)C2)C1` [Example 4], the IC50 amounted to 1.74 nM.
Next, `O=C(N1CC2(CC(Cc3nnc(C4(C(F)(F)F)CC4)o3)C2)C1)N1CC2(CC(n3cnc(C4CC4)n3)C2)C1` [Example 8]: 0.7 nM.
Compound `O=C(N1CC2(CC(n3cnc(C4(O)CC4)n3)C2)C1)N1CC2(CN(Cc3ncc(C(F)(F)F)s3)C2)C1` [Example 148, [6-[3-(1-hydroxycyclopropyl)-1,2,4-triazol-1-yl]-2-azaspiro[3.3]heptan-2-yl]-[6-[[5-(trifluoromethyl)thiazol-2-yl]methyl]-2,6-diazaspiro[3.3]heptan-2-yl]methanone] returned an IC50 of 10.8 nM.
The figure for `O=C(N1CC2(CC(n3cnc(C(F)(F)F)n3)C2)C1)N1CC2(CN(Cc3nc[nH]c3C(F)(F)F)C2)C1` [Example 237, [6-[[5-(trifluoromethyl)-1H-imidazol-4-yl]methyl]-2,6-diazaspiro[3.3]heptan-2-yl]-[6-[3-(trifluoromethyl)-1,2,4-triazol-1-yl]-2-azaspiro[3.3]heptan-2-yl]methanone] is 158 nM; for `CCc1nc(C)c(CN2CC3(C2)CN(C(=O)N2CC4(CC(n5cnc(C6CC6)n5)C4)C2)C3)[nH]1` [Example 306, [6-(3-cyclopropyl-1,2,4-triazol-1-yl)-2-azaspiro[3.3]heptan-2-yl]-[6-[(2-ethyl-4-methyl-1H-imidazol-5-yl)methyl]-2,6-diazaspiro[3.3]heptan-2-yl]methanone] it is 907 nM; for `O=C(N1CC2(CC(n3cnc(C4CC4)n3)C2)C1)N1CC2(CN(Cc3cnn4ccccc34)C2)C1` [Example 285, [6-(3-cyclopropyl-1,2,4-triazol-1-yl)-2-azaspiro[3.3]heptan-2-yl]-[6-(pyrazolo[1,5-a]pyridin-3-ylmethyl)-2,6-diazaspiro[3.3]heptan-2-yl]methanone] it is 13.4 nM.
The figure for `Cc1sc(CN2CC3(C2)CN(C(=O)N2CC4(CC(n5cnc(C6CC6)n5)C4)C2)C3)nc1C(F)(F)F` [Example 55, [6-(3-cyclopropyl-1,2,4-triazol-1-yl)-2-azaspiro[3.3]heptan-2-yl]-[6-[[5-methyl-4-(trifluoromethyl)thiazol-2-yl]methyl]-2,6-diazaspiro[3.3]heptan-2-yl]methanone] is 11.8 nM; for `O=C(N1CC2(CC(Cc3cc(C(F)(F)F)nn3CC(F)(F)F)C2)C1)N1CC2(CC(n3cnc(C4(O)CC4)n3)C2)C1` [Example 139] it is 2.08 nM.
Next, `CC(C)(C)c1csc(CN2CC3(C2)CN(C(=O)N2CC4(CC(n5cnc(C(F)(F)F)n5)C4)C2)C3)n1` [Example 200, [6-[(4-tert-butylthiazol-2-yl)methyl]-2,6-diazaspiro[3.3]heptan-2-yl]-[6-[3-(trifluoromethyl)-1,2,4-triazol-1-yl]-2-azaspiro[3.3]heptan-2-yl]methanone]: 1.16 nM; `O=C(N1CC2(CC(c3cc(C4CC4)n[nH]3)C2)C1)N1CC2(CN(Cc3ncc(C(F)F)s3)C2)C1` [Example 185, [6-(3-cyclopropyl-1H-pyrazol-5-yl)-2-azaspiro[3.3]heptan-2-yl]-[6-[[5-(difluoromethyl)thiazol-2-yl]methyl]-2,6-diazaspiro[3.3]heptan-2-yl]methanone]: 3.44 nM.
Regarding `O=C(N1CC2(CC(Cc3cnn(C(F)(F)F)c3)C2)C1)N1CC2(CC(n3cnc(C4(O)CC4)n3)C2)C1` [Example 14], the IC50 was 6.35 nM.
Compound `Cn1c(CN2CC3(C2)CN(C(=O)N2CC4(CC(n5cnc(C6CC6)n5)C4)C2)C3)nnc1C(F)(F)F` [Example 322, [6-(3-cyclopropyl-1,2,4-triazol-1-yl)-2-azaspiro[3.3]heptan-2-yl]-[6-[[4-methyl-5-(trifluoromethyl)-1,2,4-triazol-3-yl]methyl]-2,6-diazaspiro[3.3]heptan-2-yl]methanone] had an IC50 of 46.7 nM.
Regarding `CCn1nc(C(F)(F)F)cc1CN1CC2(C1)CN(C(=O)N1CC3(CC(n4cnc(C5CC5)n4)C3)C1)C2` [Example 170, [6-(3-cyclopropyl-1,2,4-triazol-1-yl)-2-azaspiro[3.3]heptan-2-yl]-[6-[[2-ethyl-5-(trifluoromethyl)pyrazol-3-yl]methyl]-2,6-diazaspiro[3.3]heptan-2-yl]methanone], the IC50 was 2.23 nM.
Next, `O=C(N1CC2(CC(Cc3cn(CC(F)(F)F)nn3)C2)C1)N1CC2(CC(n3cnc(C4CC4)n3)C2)C1` [Example 347, [6-(3-cyclopropyl-1,2,4-triazol-1-yl)-2-azaspiro[3.3]heptan-2-yl]-[6-[[1-(2,2,2-trifluoroethyl)triazol-4-yl]methyl]-2-azaspiro[3.3]heptan-2-yl]methanone]: 1.77 nM; `O=C(N1CC2(CC(n3cnc(C(F)(F)F)n3)C2)C1)N1CC2(CN(Cc3nc(C4(C(F)(F)F)CC4)no3)C2)C1` [Example 328, [6-[[3-[1-(trifluoromethyl)cyclopropyl]-1,2,4-oxadiazol-5-yl]methyl]-2,6-diazaspiro[3.3]heptan-2-yl]-[6-[3-(trifluoromethyl)-1,2,4-triazol-1-yl]-2-azaspiro[3.3]heptan-2-yl]methanone]: 15 nM; `CC(C)(C)c1noc(CN2CC3(C2)CN(C(=O)N2CC4(CC(n5cnc(C6CC6)n5)C4)C2)C3)n1` [Example 266, [6-[(3-tert-butyl-1,2,4-oxadiazol-5-yl)methyl]-2,6-diazaspiro[3.3]heptan-2-yl]-[6-(3-cyclopropyl-1,2,4-triazol-1-yl)-2-azaspiro[3.3]heptan-2-yl]methanone]: 2 nM.
The figure for `CC(C)(C)c1ncc(CN2CC3(C2)CN(C(=O)N2CC4(CC(n5cnc(C6(O)CC6)n5)C4)C2)C3)s1` [Example 58, [6-[(2-tert-butylthiazol-5-yl)methyl]-2,6-diazaspiro[3.3]heptan-2-yl]-[6-[3-(1-hydroxycyclopropyl)-1,2,4-triazol-1-yl]-2-azaspiro[3.3]heptan-2-yl]methanone] is 8.12 nM; for `N#Cc1cnn(CC2CC3(C2)CN(C(=O)N2CC4(CC(c5cc(C6CC6)n[nH]5)C4)C2)C3)c1` [Example 37] it is 4.3 nM.
`CC(C)(C)c1coc(CN2CC3(C2)CN(C(=O)N2CC4(CC(n5cnc(C6CC6)n5)C4)C2)C3)n1` [Example 98, [6-[(4-tert-butyloxazol-2-yl)methyl]-2,6-diazaspiro[3.3]heptan-2-yl]-[6-(3-cyclopropyl-1,2,4-triazol-1-yl)-2-azaspiro[3.3]heptan-2-yl]methanone] had an IC50 of 0.96 nM.
Next, `O=C(N1CC2(CC(Cc3cn[nH]c3C(F)(F)F)C2)C1)N1CC2(CC(n3cnc(C(F)F)n3)C2)C1` [Example 346, [6-[3-(difluoromethyl)-1,2,4-triazol-1-yl]-2-azaspiro[3.3]heptan-2-yl]-[6-[[5-(trifluoromethyl)-1H-pyrazol-4-yl]methyl]-2-azaspiro[3.3]heptan-2-yl]methanone]: 1.99 nM; `Cn1ncc(CN2CC3(C2)CN(C(=O)N2CC4(CC(c5cc(C6CC6)n[nH]5)C4)C2)C3)c1C(F)(F)F` [Example 163, [6-(3-cyclopropyl-1H-pyrazol-5-yl)-2-azaspiro[3.3]heptan-2-yl]-[6-[[1-methyl-5-(trifluoromethyl)pyrazol-4-yl]methyl]-2,6-diazaspiro[3.3]heptan-2-yl]methanone]: 3.3 nM.
